Source: ChEMBL document CHEMBL3751693, “Synthesis, antimicrobial evaluation and molecular modeling of 5-hydroxyisoquinolinium salt series; the effect of the hydroxyl moiety” (Bioorg Med Chem, 2016)

Tests used:
Staphylococcus aureus [1] = assay: Antimicrobial activity against clinical isolate Staphylococcus aureus CCM 451608 after 48 hrs; type: functional; settings: CCM 451608, 48 h
[2] = tested on: Staphylococcus epidermidis; assay: Antimicrobial activity against clinical isolate Staphylococcus epidermidis H 696608 after 24 hrs; type: functional; settings: H 696608, 24 h
Escherichia coli [3] = assay: Antimicrobial activity against clinical isolate Escherichia coli CCM 4517 after 24 hrs; type: functional; settings: CCM 4517, 24 h
Pichia kudriavzevii [4] = assay: Antimicrobial activity against Candida krusei E28 after 48 hrs by spectrophotometry; type: functional; settings: E28, 48 h
Pichia kudriavzevii [5] = assay: Antimicrobial activity against Candida krusei E28 after 24 hrs by spectrophotometry; type: functional; settings: E28, 24 h
Aspergillus fumigatus [6] = assay: Antimicrobial activity against Aspergillus fumigatus 231 after 24 hrs by spectrophotometry; type: functional; settings: Aspergillus fumigatus, 231, 24 h
Candida albicans [7] = assay: Antimicrobial activity against Candida albicans ATCC 44859 after 24 hrs by spectrophotometry; type: functional; settings: ATCC 44859, 24 h
[8] = tested on: Staphylococcus epidermidis; assay: Antimicrobial activity against clinical isolate Staphylococcus epidermidis H 696608 after 48 hrs; type: functional; settings: H 696608, 48 h
[9] = Cytotoxicity against CHOK1 cells after 24 hrs by MTT assay; type: cell-based; settings: Cricetulus griseus, CHO-K1, 24 h
Candida tropicalis [10] = assay: Antimicrobial activity against Candida tropicalis 156 after 24 hrs by spectrophotometry; type: functional; settings: Candida tropicalis, 156, 24 h
Nakaseomyces glabratus [11] = assay: Antimicrobial activity against Candida glabrata 20/I after 24 hrs by spectrophotometry; type: functional
[12] = tested on: Trichophyton mentagrophytes; assay: Antimicrobial activity against Trichophyton mentagrophytes 445 after 120 hrs by spectrophotometry; type: functional; settings: Trichophyton mentagrophytes, 445, 120 h
Enterococcus sp. [13] = assay: Antimicrobial activity against clinical isolate Enterococcus sp. J 1436508 after 24 hrs; type: functional; settings: J 1436508, 24 h
Pseudomonas aeruginosa [14] = assay: Antimicrobial activity against clinical isolate Pseudomonas aeruginosa CCM 1961 after 120 hrs; type: functional; settings: CCM 1961, 120 h
Trichosporon asahii [15] = assay: Antimicrobial activity against Trichosporon asahii 1188 after 24 hrs by spectrophotometry; type: functional; settings: Trichosporon asahii, 1188, 24 h
Pseudomonas aeruginosa [16] = assay: Antimicrobial activity against clinical isolate Pseudomonas aeruginosa CCM 1961 after 72 hrs; type: functional; settings: CCM 1961, 72 h
Staphylococcus aureus [17] = assay: Antimicrobial activity against clinical isolate methicillin-resistant Staphylococcus aureus H 599608 after 24 hrs; type: functional; settings: H 599608, 24 h
Staphylococcus aureus [18] = assay: Antimicrobial activity against clinical isolate methicillin-resistant Staphylococcus aureus H 599608 after 48 hrs; type: functional; settings: H 599608, 48 h
Candida albicans [19] = assay: Antimicrobial activity against Candida albicans ATCC 44859 after 48 hrs by spectrophotometry; type: functional; settings: ATCC 44859, 48 h
Lichtheimia corymbifera [20] = assay: Antimicrobial activity against Absidia corymbifera 272 after 48 hrs by spectrophotometry; type: functional; settings: Lichtheimia corymbifera, 272, 48 h
Klebsiella pneumoniae [21] = assay: Antimicrobial activity against clinical isolate ESBL-Klebsiella pneumoniae J 1436808 after 24 hrs; type: functional; settings: J 1436808, 24 h
Escherichia coli [22] = assay: Antimicrobial activity against clinical isolate Escherichia coli CCM 4517 after 48 hrs; type: functional; settings: CCM 4517, 48 h
Trichosporon asahii [23] = assay: Antimicrobial activity against Trichosporon asahii 1188 after 48 hrs by spectrophotometry; type: functional; settings: Trichosporon asahii, 1188, 48 h
Staphylococcus aureus [24] = assay: Antimicrobial activity against clinical isolate Staphylococcus aureus CCM 451608 after 24 hrs; type: functional; settings: CCM 451608, 24 h
Enterococcus sp. [25] = assay: Antimicrobial activity against clinical isolate Enterococcus sp. J 1436508 after 48 hrs; type: functional; settings: J 1436508, 48 h
Klebsiella pneumoniae [26] = assay: Antimicrobial activity against clinical isolate Klebsiella pneumoniae D 1175008 after 24 hrs; type: functional; settings: D 1175008, 24 h
Nakaseomyces glabratus [27] = assay: Antimicrobial activity against Candida glabrata 20/I after 48 hrs by spectrophotometry; type: functional
Candida tropicalis [28] = assay: Antimicrobial activity against Candida tropicalis 156 after 48 hrs by spectrophotometry; type: functional; settings: Candida tropicalis, 156, 48 h
Klebsiella pneumoniae [29] = assay: Antimicrobial activity against clinical isolate ESBL-Klebsiella pneumoniae J 1436808 after 48 hrs; type: functional; settings: J 1436808, 48 h
Klebsiella pneumoniae [30] = assay: Antimicrobial activity against clinical isolate Klebsiella pneumoniae D 1175008 after 48 hrs; type: functional; settings: D 1175008, 48 h
Aspergillus fumigatus [31] = assay: Antimicrobial activity against Aspergillus fumigatus 231 after 48 hrs by spectrophotometry; type: functional; settings: Aspergillus fumigatus, 231, 48 h
[32] = tested on: Trichophyton mentagrophytes; assay: Antimicrobial activity against Trichophyton mentagrophytes 445 after 72 hrs by spectrophotometry; type: functional; settings: Trichophyton mentagrophytes, 445, 72 h
Lichtheimia corymbifera [33] = assay: Antimicrobial activity against Absidia corymbifera 272 after 24 hrs by spectrophotometry; type: functional; settings: Lichtheimia corymbifera, 272, 24 h

CCCCCCCCCCCCCCCC[n+]1ccc2ccccc2c1
1 µM: MIC (Staphylococcus aureus [1]) | MIC (Enterococcus sp. [13]) | MIC (Staphylococcus aureus [17]) | MIC (Staphylococcus aureus [18]) | MIC (Staphylococcus aureus [24]) | MIC (Enterococcus sp. [25])
7.8 µM: MFC [12] | MIC (Klebsiella pneumoniae [21]) | MIC (Klebsiella pneumoniae [29]) | MBC (Klebsiella pneumoniae [30])
16 µM: MIC (Lichtheimia corymbifera [20]) | MIC (Lichtheimia corymbifera [33])
0.5 µM: MIC [2] | MIC [8]
2 µM: MBC (Staphylococcus aureus [1]) | MFC (Pichia kudriavzevii [4]) | MIC (Pichia kudriavzevii [4]) | MIC (Pichia kudriavzevii [5]) | MIC (Candida albicans [7]) | MBC [8] | MIC (Candida tropicalis [10]) | MIC (Nakaseomyces glabratus [11]) | MIC [12] | MBC (Staphylococcus aureus [18]) | MFC (Candida albicans [19]) | MIC (Candida albicans [19]) | MFC (Nakaseomyces glabratus [27]) | MIC (Nakaseomyces glabratus [27]) | MFC (Candida tropicalis [28]) | MIC (Candida tropicalis [28]) | MIC [32]
3.9 µM: MIC (Escherichia coli [3]) | MIC (Aspergillus fumigatus [6]) | MIC (Trichosporon asahii [15]) | MBC (Escherichia coli [22]) | MIC (Escherichia coli [22]) | MFC (Trichosporon asahii [23]) | MIC (Trichosporon asahii [23]) | MBC (Enterococcus sp. [25]) | MIC (Klebsiella pneumoniae [26]) | MIC (Klebsiella pneumoniae [30]) | MFC (Aspergillus fumigatus [31]) | MIC (Aspergillus fumigatus [31])
125 µM: MBC (Pseudomonas aeruginosa [14]) | MIC (Pseudomonas aeruginosa [14]) | MIC (Pseudomonas aeruginosa [16]) | MFC (Lichtheimia corymbifera [20])
7 µM: IC50 [9]
31 µM: MBC (Klebsiella pneumoniae [29])

CCCCCCCCCCCCCC[N+](C)(C)Cc1ccccc1
3.9 µM: MBC (Staphylococcus aureus [1]) | MIC (Pichia kudriavzevii [4]) | MIC (Pichia kudriavzevii [5]) | MIC (Candida tropicalis [10]) | MBC (Staphylococcus aureus [18]) | MIC (Candida tropicalis [28])
31 µM: MIC (Trichosporon asahii [15]) | MIC (Lichtheimia corymbifera [20]) | MIC (Trichosporon asahii [23]) | MIC (Lichtheimia corymbifera [33])
16 µM: MFC [12] | MIC [12] | MIC (Pseudomonas aeruginosa [14]) | MIC (Pseudomonas aeruginosa [16]) | MIC (Aspergillus fumigatus [31]) | MIC [32]
2 µM: MIC (Enterococcus sp. [13]) | MIC (Staphylococcus aureus [17]) | MIC (Staphylococcus aureus [18]) | MIC (Enterococcus sp. [25])
7.8 µM: MIC (Escherichia coli [3]) | MIC (Aspergillus fumigatus [6]) | MIC (Candida albicans [7]) | MIC (Nakaseomyces glabratus [11]) | MIC (Candida albicans [19]) | MIC (Klebsiella pneumoniae [21]) | MBC (Escherichia coli [22]) | MIC (Escherichia coli [22]) | MBC (Enterococcus sp. [25]) | MIC (Klebsiella pneumoniae [26]) | MIC (Nakaseomyces glabratus [27]) | MBC (Klebsiella pneumoniae [29]) | MIC (Klebsiella pneumoniae [29]) | MBC (Klebsiella pneumoniae [30]) | MIC (Klebsiella pneumoniae [30])
125 µM: MFC (Pichia kudriavzevii [4]) | MFC (Candida albicans [19]) | MFC (Lichtheimia corymbifera [20]) | MFC (Trichosporon asahii [23]) | MFC (Nakaseomyces glabratus [27]) | MFC (Candida tropicalis [28]) | MFC (Aspergillus fumigatus [31])
24 µM: IC50 [9]
1 µM: MIC (Staphylococcus aureus [1]) | MIC [2] | MBC [8] | MIC [8] | MIC (Staphylococcus aureus [24])
63 µM: MBC (Pseudomonas aeruginosa [14])
